{
  "source": "the NIST ThermoML archive (doi:10.1021/je700746a)",
  "details": "298.15 K; 101.33 kPa; Liquid",
  "note": "Numbers after ± are expanded uncertainties.",
  "data": [
    {"smiles": "CC(=O)CC(C)C", "note": "[4-methylpentan-2-one]", "values": [
      {"measurement": "viscosity", "result": "0.56 ± 0.04", "unit": "mPa·s"}
    ]}
  ]
}
